This is an account of results in PMC12746157, “Light-Regulated Agonists Spatiotemporally Activating the Vitamin D Receptor Mitigate Psoriasis-like Inflammation in Mice without Inducing Hypercalcemia” (ACS Central Science, 2025).

A value given as a limit tells only on which side of the number the result lay.

Series [1] in a line: Photostationary state (PSS) determination by HPLC-MS in aqueous assay buffer. To be noted: for PSS365 (% cis) / PSS525 (%trans): 21 °C, HPLC-MS, 60 μM, aqueous buffer 0.6% DMSO; for PSS365 (% cis): 3 min illumination 365 nm; for PSS525 (%trans): 3 min illumination 525 nm. It counts as physicochemical. The protocol:
(§1) The UV–vis absorbance spectra of all molecules were measured in the dark and after the application of light of different wavelengths ranging from 365 to 770 nm (Figure A and Figures S1–S3). […] Consequently, violet/UV light below 405 nm efficiently promoted photoisomerization, which produced a dramatic decrease in the π-π* band and a significant increase in the n-π* band at around 445 nm (Table ). […] The proportion of molecules at the PSS in trans isomer upon constant illumination with light at 525 nm and cis at 365 nm was in general above 50%, reaching a remarkable >99% for compound 11d (Table and Figures S4 and S5). […] The greater stability of the trans isomer was consistent with previous quantum mechanical and molecular mechanics predictions. Measuring the photoisomerization properties of compound PhotoVDRM allowed us to determine the photoisomerization quantum yields of the compound by solving a differential equation for photoisomerization. We used MATLAB to perform regression and arrive at the following photoisomerization quantum yields: ϕ365 nm (trans) = 0.0427, ϕ365 nm (cis) = 0.0501, ϕ470 nm (trans) = 0.1857, and ϕ470 nm (cis) = 0.2281 (Figure S9). Compound PhotoVDRM was also evaluated in aqueous buffer used for pharmacological experiments (0.5% DMSO) showing a thermal relaxation of 3 h, almost 7 times faster than in pure DMSO (Figure B). […] A deeper photocharacterization of PhotoVDRM allowed us to measure the kinetics of photoconversion upon constant illumination with two wavelengths and three light intensities (Figure D and Figure S10). […] Indeed, with LED devices producing light at intensities as low as 0.05 mW/mm^2 we were able to transform trans to cis in around 15.5 s. This time was reduced to 6 and 2 s when the light intensity was increased to 0.15 and 0.75 mW/mm^2. […] Therefore, we proceeded to test the ability of the chemical library to activate the VDR under different light conditions.
Photostationary state (PSS) determination. In a transparent vial, solutions of the compounds were prepared at a concentration of 60 µM from a 10 mM stock in DMSO, using the assay buffer of pharmacological experiments for dilution. Prior to illumination, a volume of 500 µL was transferred to an amber vial for the "dark" sample. The same procedure was repeated after exposing the transparent vial containing the 60 µM solutions to the following light conditions:
365nm for 3 minutes and 525nm for 3 minutes. […]
difference on isomeric proportions. For each sample, 20 µL was analyzed by HPLC-MS, and the isomer ratios were determined at the isosbestic point.
Isosbestic point determination. The solvent percentage for the elution of each isomer were calculated based on their retention times from HPLC analysis. Subsequently, 50 µM solutions were prepared from the 10 mM DMSO stock solution of each compound using the previously determined HPLC solvent mixture. The UV spectrum for each solution was recorded after illumination at 365 nm (30 seconds), at 400 nm (30 seconds), and at 525 nm (30 seconds). The spectra were overlaid to identify the isosbestic point of maximum intensity.
HPLC conditions. Analytical HPLC was performed on a Thermo Ultimate 3000SD (Thermo Scientific Dionex) coupled to a PDA detector and Mass Spectrometer LTQ XL ESI-ion trap (Thermo Scientific). Cromatographic separations were performed using a ZORBAX Eclipse Plus C18 (4.6 x 150mm; 3.5µm) column. The mobile phase consisted of an isocratic mixture of solvent A (water with 0.05% of formic acid) and solvent B (acetonitrile with 0.05% formic acid) at a 3:7 ratio for compounds 10a-d and a 2:3 ratio for compounds 11a-d and 12a-d. […]

Series [2] can be described thus: UV-Vis absorption spectra and thermal relaxation of the cis isomers in DMSO. Format: physicochemical. Particulars: 60 μM in 100% DMSO, 37 °C; for λn−π* (cis): after illumination; for λπ–π* (trans): dark. The protocol:
as §1
2. Photochemical characterization. […]
(200 µL per well). The absorption spectra were recorded from 300 to 600 nm with 2 nm fixed intervals using a Tecan Spark 20M Multimode microplate reader. Initial measurements were performed in the dark, followed by spectra acquired immediately after each 3 min period of light irradiation at different wavelengths using 96-well LED array plates (LEDA Teleopto). Theoretical absorbance spectra corresponding to the pure cis isomer (100%) of each compound were calculated in order to obtain the theoretical percentage of cis isomer at each wavelength, according to the method described by Ernst Fischer (1967). Thermal relaxation kinetics of the experimental cis isomers were assessed in quartz cuvettes (10 mm optical path) containing freshly prepared 50 […]
Dark state absorbance at 365 nm was recorded at 37
ºC using a ThermoFisher Evolution 350 UV-Vis spectrophotometer. Samples were then irradiated for 3 minutes at 365 nm with a CoolLED pE-4000 light sourceto induce trans → cis photoisomerization.. Absorbance at 365 nm was subsequently monitored over 48 h: every 15 min during the first 24 h, and every 60 min during the following 24 h. Relaxation half-lives were determined by fitting the absorbance-time data to a […] exponential model using GraphPad Prism v10.4.1. […]

For the molecule `COC(=O)c1ccc(-c2cccc(/N=N/c3ccc(OCC(O)C(C)(C)C)cc3C)c2)c(C)c1` (centres unmarked) [Compound 10d], in series [1], the “PSS365 (% cis)” value came out at 88% and the “PSS525 (%trans)” value came out at 81%. Moreover, in series [2], the “t 1/2 (thermal relaxation of cis)” value is 8.2 h, the “λn−π* (cis)” value is on record as 438 nm and the “λπ–π* (trans)” value came out at 360 nm.
Taken in the same sequence, the figures for `Cc1cc(OCC(O)C(C)(C)C)ccc1/N=N/c1cccc(-c2ccc(CO)cc2)c1` (centres unmarked) [Compound 12b] were 84%, 84%, 6.8 h, 444 nm and 362 nm.
`Cc1cc(OCC(O)C(C)(C)C)ccc1N=Nc1cccc(-c2ccc(C(=O)O)cc2)c1` (centres unmarked) [Compound 11b]: in series [1], the “PSS365 (% cis)” value is given as 95% and the “PSS525 (%trans)” value is 55%. The “proportion of cis at PSS 460 nm” value in series [1] (460 nm, assay buffer (Figure S4D)) amounted to 63%. For the same molecule, in series [2], the “t 1/2 (thermal relaxation of cis)” value was found to be 20.5 h, the “λn−π* (cis)” value came to 442 nm and the “λπ–π* (trans)” value was determined as 362 nm.
Regarding `Cc1cc(OCC(O)C(C)(C)C)ccc1/N=N/c1cccc(-c2ccc(C(=O)O)cc2C)c1` (centres unmarked) [Compound 11d], in series [1], the “PSS365 (% cis)” value is on record as above 99% and the “PSS525 (%trans)” value turned out to be 61%. For the same molecule, in series [2], the “t 1/2 (thermal relaxation of cis)” value is 17.7 h, the “λn−π* (cis)” value is on record as 444 nm and the “λπ–π* (trans)” value stood at 362 nm.
Take `COC(=O)c1ccc(-c2cccc(/N=N/c3ccc(OCC(O)C(C)(C)C)c(C)c3)c2)cc1` (centres unmarked) [Compound 10a]: in series [1], the “PSS365 (% cis)” value is recorded as 83% and the “PSS525 (%trans)” value is 86%. In series [2], the “t 1/2 (thermal relaxation of cis)” value came to 9.3 h, the “λn−π* (cis)” value was found to be 446 nm and the “λπ–π* (trans)” value is reported as 366 nm.
Regarding `COC(=O)c1ccc(-c2cccc(/N=N/c3ccc(OCC(O)C(C)(C)C)cc3C)c2)cc1` (centres unmarked) [Compound 10b], in series [1], the “PSS365 (% cis)” value was determined as 78% and the “PSS525 (%trans)” value was 73%. Also, in series [2], the “t 1/2 (thermal relaxation of cis)” value worked out at 7.6 h, the “λn−π* (cis)” value is listed as 440 nm and the “λπ–π* (trans)” value was 360 nm.
With `Cc1cc(OCC(O)C(C)(C)C)ccc1/N=N/c1cccc(-c2ccc(CO)cc2C)c1` (centres unmarked) [Compound 12d], in series [1], the “PSS365 (% cis)” value was found to be 88% and the “PSS525 (%trans)” value is recorded as 82%. In series [2], the “t 1/2 (thermal relaxation of cis)” value was 8.2 h, the “λn−π* (cis)” value is given as 446 nm and the “λπ–π* (trans)” value is listed as 362 nm.
For `COC(=O)c1ccc(-c2cccc(/N=N/c3ccc(OCC(O)C(C)(C)C)c(C)c3)c2)c(C)c1` (centres unmarked) [Compound 10c], in series [1], the “PSS365 (% cis)” value was determined as 73% and the “PSS525 (%trans)” value came out at 83%. In series [2], the “t 1/2 (thermal relaxation of cis)” value is 12.5 h, the “λn−π* (cis)” value is given as 444 nm and the “λπ–π* (trans)” value worked out at 366 nm.
Consider `Cc1cc(/N=N/c2cccc(-c3ccc(C(=O)O)cc3C)c2)ccc1OCC(O)C(C)(C)C` (centres unmarked) [Compound 11c], for which, in series [1], the “PSS365 (% cis)” value is 96% and the “PSS525 (%trans)” value is reported as 84%. In series [2], the “t 1/2 (thermal relaxation of cis)” value came to 25.4 h, the “λn−π* (cis)” value came out at 444 nm and the “λπ–π* (trans)” value came to 364 nm.
Taken in the same sequence, the figures for `Cc1cc(/N=N/c2cccc(-c3ccc(C(=O)O)cc3)c2)ccc1OCC(O)C(C)(C)C` (centres unmarked) [Compound 11a] were 94%, 74%, 9.1 h, 440 nm and 366 nm.
As to `Cc1cc(/N=N/c2cccc(-c3ccc(CO)cc3)c2)ccc1OCC(O)C(C)(C)C` (centres unmarked) [Compound 12a], in series [1], the “PSS365 (% cis)” value turned out to be 80% and the “PSS525 (%trans)” value is given as 87%. Moreover, in series [2], the “t 1/2 (thermal relaxation of cis)” value was 9.1 h, the “λn−π* (cis)” value is 444 nm and the “λπ–π* (trans)” value is listed as 364 nm.
